Reference: patent US20090118253A1, “COMPOSITIONS AND METHODS FOR TREATING DYSFUNCTIONAL UTERINE BLEEDING” (REPROS THERAPEUTICS INC., priority 2007, published 2009)

Assays:
[1] = tested on: rabbit progesterone receptor (rbPR) and glucocorticoid receptor (rbGR); experiment: Receptor-binding assays, ratio of relative binding affinities rbPR/rbGR; details: ratio of relative binding affinities (RBA = EC50 of standard/EC50 of test compound x 100) for rbPR and rbGR
Protocol: Certain antiprogestins were tested in receptor-binding assays for their ability to bind rabbit progesterone receptor (rbPR) and glucocorticoid receptor (rbGR). Briefly, cytosol containing PR or GR were prepared in TEGMD buffer (10 mM Tris, pH 7.2, 1.5 mM EDTA, 0.2 mM sodium molybdate, 10% glycerol, 1 mM DTT) from uterus or thymus, respectively, of estradiol-primed immature rabbits. For PR binding, the cytosol was incubated with 6 nM 1,2-[^3H]progesterone (50.0 Ci/mmole) and competitors were added at concentrations from 2 to 100 nM. For binding to GR, the cytosol was incubated with 6 nM 6,7-[^3H]-dexamethasone (40 Ci/mmol) and test compounds were added at concentrations from 20 to 100 nM. After overnight incubation at 4 C, bound and unbound [^3H] steroids were separated by addition of dextran-coated charcoal and centrifugation at 2100×g for 15 min at 4 C. Supernatants containing the [3H]-steroid receptor complexes were decanted into vials containing 4 ml Optifluor (Packard Instrument Co.), vortexed, equilibrated in a liquid scintillation counter for 30 minutes and then counted for 2 minutes. The EC50 (Effective Concentration) for each standard curve and each of the compound curves was determined by entering the counting data into a four parameter sigmoidal computer program (RiaSmart® Immunoassay Data Reduction Program, Packard Instrument Co., Meriden, Conn.). Relative binding affinity (RBA) for each compound was calculated using the following equation: EC50 of standard/EC50 of test compound×100. The standards for the PR and GR assays were unlabeled progesterone and dexamethasone, respectively. The results of these experiments are summarized in Table 1, as a ratio of the relative binding affinities of each compound for the rbPR and rbGR receptors (rbPR/rbGR).

[2] = tested on: progesterone-induced endometrial glandular proliferation in rabbit uterus; experiment: anti-McGinty and anti-Clauberg assays in the rabbit uterus; type: in vivo; details: average of anti-McGinty and anti-Clauberg results relative to CDB-2914 (=1.00)
Text: Also given in Table 1 are the relative biological activities of the same compounds in the rabbit uterus by the anti-McGinty and anti-Clauberg assays. Compound CDB-2914 (listed at the end of the Table) was used as the control or reference compound (rabbit Biological Activity=1.00) for these experiments because results of experiments using CDB-2914 have been published before (Hild-Petito et al., 1996; Passaro et al., 1997; Reel et al., 1998; Lamer et al., 2000). For the anti-McGinty test, immature female rabbits received a subcutaneous injection of 5 μg estradiol in 10% ethanol/sesame oil daily for 6 consecutive days. On day 7, animals underwent sterile abdominal surgery to ligate a 3-4 cm segment of both uterine horns. The test compound in appropriate solvent was injected intraluminally into the ligated segment of one uterine horn and vehicle alone into the other. A stimulating dose of progesterone (267 μg/day) was administered subcutaneously to each rabbit daily for the next three days to induce endometrial proliferation. All animals were sacrificed at day 10 for removal of the uterus where a segment central to the ligatures was removed and fixed in 10% neutral buffered formalin and submitted for histological processing. Five micron sections stained with hematoxylin and cosin were evaluated microscopically for the degree of endometrial glandular proliferation. The percent inhibition of endometrial proliferation for each rabbit was calculated and the mean of the group of five animals recorded. For the Anti-Clauberg test, immature female rabbits received a subcutaneous injection of 5 μg estradiol in 10% ethanol/sesame oil daily for 6 consecutive days. On day 7, animals received progesterone by subcutaneous injection (160 μg/day) and the experimental compound in appropriate vehicle orally or subcutaneously for five consecutive days. One group of rabbits received progesterone only. Twenty-four hours after the last dose, all animals were sacrificed for removal of the uterus which was cleaned of all fat and connective tissue, weighed to the nearest 0.2 mg and placed in 10% neutral buffered formalin for subsequent histological processing. Five micron sections stained with hematoxylin and eosin were evaluated microscopically for the degree of endometrial glandular proliferation. The percent inhibition of endometrial proliferation at each dose level of the test compound was derived by comparison with progesterone-stimulated animals alone. The data presented in Table 1 (rabbit Biol. Act.) reflects the average of the results obtained for each compound by the anti-McGinty and anti-Clauberg assays relative to CDB-2914.

Compound	rbPR/rbGR [1]	rabbit Biol. Act. [2]
2 11-(Cyp*-hydroxy)-17α-acetoxy-11β-(4 N,N-dimethylaminophenyl)-19-norpregna-4,9-diene-3,20-dione [CDB-4125]	1.19	1.55
21-BMD-17α-acetoxy-11β-(4 N,N-dimethylaminophenyl)-19-norpregna-4,9-diene-3,20-dione [CDB-4111]	1.30	0.36
21-methoxyacetyl-17α-acetoxy-11β-(4 N,N-dimethylaminophenyl)-19-norpregna-4,9-diene-3,20-dione [CDB-4362]	4.74	1.25
CCC(=O)[C@@]1(OC(C)=O)CCC2C3CCC4=CC(=O)CCC4=C3C(c3ccc(N(C)C)cc3)C[C@@]21C (stereo partly drawn) [CDB-4030, 21-methyl-17α-acetoxy-11β-(4 N,N-dimethylaminophenyl)-19-norpregna-4,9-diene-3,20-dione]	0.96	0.30
CC(=O)O[C@]1(C(=O)CBr)CCC2C3CCC4=CC(=O)CCC4=C3C(c3ccc(N(C)C)cc3)C[C@@]21C (stereo partly drawn) [CDB-4031, 21-bromine-17α-acetoxy-11β-(4 N,N-dimethylaminophenyl)-19-norpregna-4,9-diene-3,20-dione]	0.69	0.70
CC(=O)O[C@]1(C(=O)CF)CCC2C3CCC4=CC(=O)CCC4=C3C(c3ccc(N(C)C)cc3)C[C@@]21C (stereo partly drawn) [CDB-4058, 21-flourine-17α-acetoxy-11β-(4 N,N-dimethylaminophenyl)-19-norpregna-4,9-diene-3,20-dione]	1.08	0.90
CC(=O)O[C@]1(C(=O)C[S+](C)[O-])CCC2C3CCC4=CC(=O)CCC4=C3C(c3ccc(N(C)C)cc3)C[C@@]21C (stereo partly drawn) [CDB-4101, 21-methoxythio-17α-acetoxy-11β-(4 N,N-dimethylaminophenyl)-19-norpregna-4,9-diene-3,20-dione]	0.61	0.65
CC(=O)O[C@]1(C2COC(C)(C)O2)CCC2C3CCC4=CC(=O)CCC4=C3C(c3ccc(N(C)C)cc3)C[C@@]21C (stereo partly drawn) [CDB-4110, 21-acetonide-17α-acetoxy-11β-(4 N,N-dimethylaminophenyl)-19-norpregna-4,9-diene-3,20-dione]	0.70	0.10
CC(=O)O[C@]1(C(=O)CSC(C)=O)CCC2C3CCC4=C(C(=O)c5ccccc5)C(=O)CCC4=C3C(c3ccc(N(C)C)cc3)C[C@@]21C (stereo partly drawn) [CDB-4119, 4-benzoin-21-acetylthio-17α-acetoxy-11β-(4 N,N-dimethylaminophenyl)-19-norpregna-4,9-diene-3,20-dione]	2.60	0.10
CC(=O)O[C@]1(C(=O)CO)CCC2C3CCC4=CC(=O)CCC4=C3C(c3ccc(N(C)C)cc3)C[C@@]21C (stereo partly drawn) [CDB-4152, 21-hydroxy-17α-acetoxy-11β-(4 N,N-dimethylaminophenyl)-19-norpregna-4,9-diene-3,20-dione]	0.82	1.40
CCOCC(=O)[C@@]1(OC(C)=O)CCC2C3CCC4=CC(=O)CCC4=C3C(c3ccc(N(C)C)cc3)C[C@@]21C (stereo partly drawn) [CDB-4167, 21-ethyloxy-17α-acetoxy-11β-(4 N,N-dimethylaminophenyl)-19-norpregna-4,9-diene-3,20-dione]	1.69	1.50
COCC(=O)C1(OC(C)=O)CCC2C3CCC4=CC(=NO)CCC4=C3C(c3ccc(N(C)C)cc3)C[C@@]21C (stereo partly drawn) [CDB-4205, 3-hydroxyamino-2 1-methoxy-17α-acetoxy-11β-(4 N,N-dimethylaminophenyl)-19-norpregna-4,9-diene-3,20-dione]	1.99	1.00
CC(=O)OCC(=O)C1(OC(C)=O)CCC2C3CCC4=CC(=NO)CCC4=C3C(c3ccc(N(C)C)cc3)C[C@@]21C (stereo partly drawn) [CDB-4206, 3-hydroxyamino-21-acetoxy-17α-acetoxy-11β-(4 N,N-dimethylaminophenyl)-19-norpregna-4,9-diene-3,20-dione]	1.44	0.68
CSCC(=O)[C@@]1(OC(C)=O)CCC2C3CCC4=CC(=O)CCC4=C3C(c3ccc(N(C)C)cc3)C[C@@]21C (stereo partly drawn) [CDB-4223, 21-methylthio-17α-acetoxy-11β-(4 N,N-dimethylaminophenyl)-19-norpregna-4,9-diene-3,20-dione]	1.17	–
CCOCC(=O)C1(OC(C)=O)CCC2C3CCC4=CC(=NO)CCC4=C3C(c3ccc(N(C)C)cc3)C[C@@]21C (stereo partly drawn) [CDB-4226, 3-hydroxyamino-21-ethyloxy-17α-acetoxy-11β-(4 N,N-dimethylaminophenyl)-19-norpregna-4,9-diene-3,20-dione]	1.51	0.54
COCC(=O)[C@@]1(OC(C)=O)CCC2C3CCC4=C(C(=O)c5ccccc5)C(=O)CCC4=C3C(c3ccc(N(C)C)cc3)C[C@@]21C (stereo partly drawn) [CDB-4239, 4-benzoin-21-methoxy-17α-acetoxy-11β-(4 N,N-dimethylaminophenyl)-19-norpregna-4,9-diene-3,20-dione]	14.80	0.60
CCC(=O)OCC(=O)[C@@]1(OC(C)=O)CCC2C3CCC4=CC(=O)CCC4=C3C(c3ccc(N(C)C)cc3)C[C@@]21C (stereo partly drawn) [CDB-4247, 21-propio[1]nyloxy-17α-acetoxy-1 1β-(4 N,N-dimethylaminophenyl)-19-norpregna-4,9-diene-3,20-dione]	2.06	1.70
CC(=O)O[C@]1(C(=O)COC(=O)CN)CCC2C3CCC4=CC(=O)CCC4=C3C(c3ccc(N(C)C)cc3)C[C@@]21C (stereo partly drawn) [CDB-4306, 21-glycinate-17α-acetoxy-11β-(4 N,N-dimethylaminophenyl)-19-norpregna-4,9-diene-3,20-dione]	5.90	0.95
CC(=O)O[C@]1(C(=O)CSC#N)CCC2C3CCC4=CC(=O)CCC4=C3C(c3ccc(N(C)C)cc3)C[C@@]21C (stereo partly drawn) [CDB-4352, 21-cyanothio-17α-acetoxy-11β-(4 N,N-dimethylaminophenyl)-19 norpregna-4,9-diene-3,20-dione]	4.21	0.57
C=COCC(=O)[C@@]1(OC(C)=O)CCC2C3CCC4=CC(=O)CCC4=C3C(c3ccc(N(C)C)cc3)C[C@@]21C (stereo partly drawn) [CDB-4361, 21-vinyl ether-17α-acetoxy-11β-(4 N,N-dimethylaminophenyl)-19-norpregna-4,9-diene-3,20-dione]	7.20	3.03
